Values joined by “and” are separate entries in the source; they are usually repeats but may differ in a detail not shown here. Identical values can stand only once.
Experiments:
Type in all cases: cell-based
Ole1 = biological target: T1, Ole1 (Saccharomyces cerevisiae, UniProt P21147); experiment: Growth inhibition of yeast strain expressing Ole1 as sole desaturase; settings: yeast strain expressing Ole1 as sole desaturase
T1 construct: expressed in transfected cells; host or cells: S. cerevisiae ole1Δ strain (W303 pdr1Δ pdr3Δ background), plasmid pRS316 with TDH3 promoter and CYC1 terminator
T1 sequence (P21147 1-510): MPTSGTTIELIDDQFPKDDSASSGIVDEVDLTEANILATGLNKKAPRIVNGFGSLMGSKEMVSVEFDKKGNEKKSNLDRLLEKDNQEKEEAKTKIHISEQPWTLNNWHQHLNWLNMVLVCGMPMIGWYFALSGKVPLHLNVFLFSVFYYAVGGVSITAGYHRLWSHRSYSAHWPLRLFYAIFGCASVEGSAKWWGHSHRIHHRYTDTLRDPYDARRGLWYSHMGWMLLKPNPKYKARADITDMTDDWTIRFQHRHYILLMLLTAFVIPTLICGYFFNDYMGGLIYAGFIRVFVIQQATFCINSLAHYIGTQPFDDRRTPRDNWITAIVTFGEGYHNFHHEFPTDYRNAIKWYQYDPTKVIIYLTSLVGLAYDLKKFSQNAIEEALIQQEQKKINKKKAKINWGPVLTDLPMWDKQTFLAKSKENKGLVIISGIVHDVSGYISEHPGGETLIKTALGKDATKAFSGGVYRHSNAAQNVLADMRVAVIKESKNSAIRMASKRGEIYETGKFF
How it was run: (§1)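 Measured by optical density at 600 nm, growth of desaturase-dependent yeast (OLE1 deleted; human SCD1, human SCD5 or yeast Ole1 supplied from plasmid) was scored after 24 h (Ole1) or 40 h (SCD1, SCD5) at 30° C. in galactose media lacking uracil with DMSO-delivered compound.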

SCD1 = biological target: T2, SCD1 (Homo sapiens, UniProt O00767); experiment: Growth inhibition of humanized yeast strain expressing SCD1 as sole desaturase; settings: humanized yeast strain expressing SCD1
T2 construct: host or cells: S. cerevisiae ole1Δ strain (W303 pdr1Δ pdr3Δ background), plasmid pRS316 with TDH3 promoter and CYC1 terminator
T2 sequence (O00767 1-359): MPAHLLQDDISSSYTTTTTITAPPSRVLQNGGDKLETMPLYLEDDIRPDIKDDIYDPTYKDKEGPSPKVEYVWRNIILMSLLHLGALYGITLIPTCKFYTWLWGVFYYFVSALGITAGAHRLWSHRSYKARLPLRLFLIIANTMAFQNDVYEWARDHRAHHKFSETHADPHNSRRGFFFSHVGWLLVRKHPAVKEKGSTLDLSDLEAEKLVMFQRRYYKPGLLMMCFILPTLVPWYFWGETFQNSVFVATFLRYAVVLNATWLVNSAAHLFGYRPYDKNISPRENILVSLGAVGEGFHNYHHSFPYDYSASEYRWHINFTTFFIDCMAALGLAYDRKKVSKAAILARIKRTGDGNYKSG
How it was run: as §1

SCD5 = biological target: T3, SCD5 (Homo sapiens, UniProt Q86SK9); experiment: Growth inhibition of humanized yeast strain expressing SCD5 as sole desaturase; settings: humanized yeast strain expressing SCD5
T3 construct: host or cells: S. cerevisiae ole1Δ strain (W303 pdr1Δ pdr3Δ background), plasmid pRS316 with TDH3 promoter and CYC1 terminator
T3 sequence (Q86SK9 1-330): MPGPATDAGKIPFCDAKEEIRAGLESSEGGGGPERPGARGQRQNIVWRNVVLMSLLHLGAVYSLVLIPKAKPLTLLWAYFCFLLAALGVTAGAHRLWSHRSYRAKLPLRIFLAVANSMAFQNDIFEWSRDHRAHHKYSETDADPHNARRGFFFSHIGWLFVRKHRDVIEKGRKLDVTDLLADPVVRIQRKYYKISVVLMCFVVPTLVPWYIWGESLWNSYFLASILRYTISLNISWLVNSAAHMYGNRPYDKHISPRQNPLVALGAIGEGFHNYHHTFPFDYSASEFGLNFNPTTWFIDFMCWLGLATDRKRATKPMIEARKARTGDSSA
How it was run: as §1

Compound	IC50 (Ole1) [µM]	OLE1 % Max Inhibition (Ole1)	IC50 (SCD1) [µM]	SCD1 % Max Inhibition (SCD1)	IC50 (SCD5) [µM]	SCD5 % Max Inhibition (SCD5)
COc1ccc(-c2noc(C3CCN(C(=O)CNCc4ccccc4)CC3)n2)cc1OC [Compound 30]	> 45	100.46%	> 45	80.58%	> 45	74.17%
Cc1nn(C)c2cc(-c3noc(C4(C)CCN(C(=O)CNC(=O)c5ccccc5)CC4)n3)ccc12 [Compound 227]	> 45	1.24%	38.3	63.76%	> 45	6.17%
Cc1nn(C)c2cc(-c3noc(C4CCN(C(=O)CNC(=O)c5ccsn5)CC4)n3)ccc12 [Compound 226]	> 45	1.24%	> 45	33.20%	> 45	0.69%
Cc1nn(C)c2cc(-c3noc(N4C[C@H]5CN(C(=O)CNC(=O)c6ccccc6)C[C@H]5C4)n3)ccc12 [Compound 207]	> 45	5.39%	> 45	86.42%	> 45	72.56%
N#CCC1CN(c2noc(C3CCN(C(=O)C4CC(=O)N(c5ccccc5)C4)CC3)n2)C1 (stereo not drawn) [Compound 242]	> 45	95.59%	> 45	101.23%	> 45	79.22%
COc1ccc(-c2noc(C3CCN(C(=O)[C@H](NC(=O)c4ccccc4)C4CC4)CC3)n2)cc1OC [Compound 190]	> 45	100.94%	> 45	83.53%	> 45	19.31%
Cc1nn(C)c2cc(-c3noc(C4CCN(C(=O)CNC(=O)c5ccc(C#N)cc5)CC4)n3)ccc12 [Compound 267]	> 45	4.64%	37.8	58.58%	> 45	11.33%
Cc1nn(C)c2cc(-c3noc(N4CC5(CN(C(=O)CNC(=O)c6ccccc6)C5)C4)n3)ccc12 [Compound 212]	> 45	100.82%	> 45	76.79%	> 45	76.28%
Cn1c(=O)n(C)c2cc(-c3noc(C4CCN(C(=O)CNC(=O)c5ccncc5)CC4)n3)ccc21 [Compound 238]	> 45	4.93%	> 45	70.06%	30	69.63%
Cc1nn(C)c2cc(-c3noc(N4CCN(C(=O)c5ccccc5Cl)CC4)n3)ccc12 [Compound 262]	> 45	23.99%	–	41.84%	> 45	10.38%
CCN(Cc1nc(-c2ccccc2)no1)C(=O)Cc1cccc2ccccc12 [Compound 156]	37.1	63.63%	> 45	72.58%	> 45	22.37%
CC(C)n1cc2cc(-c3noc(C4CCN(C(=O)CNC(=O)c5ccccc5)CC4)n3)ccc2n1 [Compound 229]	> 45	89.56%	> 45	66.51%	> 45	71.18%
Cc1nn(C)c2cc(-c3noc(C4CCN(C(=O)C5CNC(=O)C5)CC4)n3)ccc12 (stereo not drawn) [Compound 126]	> 45	73.29%	> 45	69.80%	30	79.08%
Cc1nn(C)c2cc(-c3noc(C4CCN(C(=O)CNC(=O)c5ccc(C(F)(F)F)cc5)CC4)n3)ccc12 [Compound 317]	> 45	8.3%	–	30.0%	> 45	20.6%
O=C(C1CC(=O)N(c2cccc(Cl)c2)C1)N1CCC(c2nc(N3CC4(COC4)C3)no2)CC1 (stereo not drawn) [Compound 339]	> 45	85.7%	> 45	56.1%	> 45	75.4%
CCN1C(=O)CN(C)c2cc(-c3noc(C4CCN(C(=O)CNC(=O)c5ccccc5)CC4)n3)ccc21 [Compound 310]	> 45	7.1%	–	71.2%	> 45	66.6%
Cc1nn(C)c2cc(-c3noc(C4CCN(C(=O)[C@@H](CO)NC(=O)c5ccccc5)CC4)n3)ccc12 [Compound 186]	> 45	35.40%	> 45	86.16%	30	73.51%
Cn1c(=O)n(C)c2cc(-c3noc(C4CCN(C(=O)CNC(=O)c5cccnc5)CC4)n3)ccc21 [Compound 233]	> 45	18.46%	> 45	73.65%	> 45	74.91%
Cc1nn(C(C)C)c2cc(-c3noc(C4CCN(C(=O)OC(C)(C)C)CC4)n3)ccc12 [Compound 343]	> 45	84.7%	–	59.1%	> 45	23.2%
CCOC(=O)C(C)(C)n1cc2ccc(-c3noc(C4CCN(C(=O)C5CC(=O)N(c6ccccc6)C5)CC4)n3)cc2n1 (stereo not drawn) [Compound 193]	> 45	89.35%	> 45	80.72%	> 45	85.76%
Cc1ccc(N2CC(C(=O)N3CCC(c4nc(-c5ccc6c(C)nn(C)c6c5)no4)CC3)CC2=O)cn1 (stereo not drawn) [Compound 179]	38.7	76.70%	> 45	106.53%	> 45	85.02%
Cc1nn(C)c2cc(-c3noc(C4CCN(C(=O)[C@H]5CC(=O)N(c6cccc(C#N)c6)C5)CC4)n3)ccc12 [Compound 305]	> 45	6.6% and 4.23%	≥ 45	73.2% and 55.27%	> 45	–
Cc1nn(C)c2cc(-c3noc(C4CCN(C(=O)C5CN(C(=O)c6ccccc6)C5)CC4)n3)ccc12 [Compound 236]	> 45	8.46%	> 45	77.23%	> 45	3.14%
CC(C)c1ccc(C(=O)N2CCC(c3nc(-c4ccc5cnn(C)c5c4)no3)CC2)cc1 [Compound 204]	> 45	79.30% and 50.38%	> 45	30.36% and 21.99%	> 45	0.25% and 2.95%
Cc1nn(C)c2cc(-c3noc(C4CCN(C(=O)C5CC(=O)N(CC6CC6)C5)CC4)n3)ccc12 (stereo not drawn) [Compound 245]	> 45	95.26%	> 45	77.70%	> 45	66.96%
CCn1nc2cc(-c3noc(C4CCN(C(=O)CNC(=O)c5ccccc5)CC4)n3)ccc2c1C [Compound 320]	> 45	28.5%	–	74.7%	> 45	76.0%
